What follows are molecules tested on Scirpus juncoides (assay: Test Example 2: herbicidal effect test by treatment during growing period in paddy rice cultivation (seven days after seeding)). Settings: 120 g/10a active ingredient, assessed 14 days after treatment, dry weight vs untreated area.
Format: in vivo
Outline: (§1)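 Post-emergence paddy water application: compounds were formulated as emulsions, diluted and dropped into flooded pots seven days after sowing at a rate equivalent to 120 g per 10 ares. Efficacy was taken as dry-weight reduction relative to untreated controls after 14 days.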

Row | SMILES | Herbicidal rate (%) Scirpus juncoides [%]
1 | CC(=O)N(c1ccccc1Cc1c(C)n(C(C)c2ccccc2)oc1=O)S(=O)(=O)C(F)(F)F (centres unmarked) [Compound 1-310] | 90
2 | CCC(=O)N(c1ccccc1Cc1c(C)n(C(C)c2ccccc2)oc1=O)S(=O)(=O)C(F)(F)F (centres unmarked) [Compound 1-321] | 90

What follows are molecules tested on Echinochloa crus-galli in the same assay as above. Settings: 120 g/10a active ingredient, assessed 14 days after treatment, dry weight vs untreated area.
Format: in vivo
Outline: as §1

Row | SMILES | Herbicidal rate (%) Echinochloa crus-galli [%]
3 | CC(=O)N(c1ccccc1Cc1c(C)n(C(C)c2ccccc2)oc1=O)S(=O)(=O)C(F)(F)F (centres unmarked) [Compound 1-310] | 90
4 | CCC(=O)N(c1ccccc1Cc1c(C)n(C(C)c2ccccc2)oc1=O)S(=O)(=O)C(F)(F)F (centres unmarked) [Compound 1-321] | 90

These molecules were tested on broad leaf weeds (Lindernia pyxidaria and Monochoria vaginalis) in the same assay as above. Settings: Lindernia pyxidaria, 120 g/10a active ingredient, assessed 14 days after treatment, dry weight vs untreated area.
Format: in vivo
Outline: as §1

Row | SMILES | Herbicidal rate (%) Lindernia pyxidaria [%]
5 | CC(=O)N(c1ccccc1Cc1c(C)n(C(C)c2ccccc2)oc1=O)S(=O)(=O)C(F)(F)F (centres unmarked) [Compound 1-310] | 90
6 | CCC(=O)N(c1ccccc1Cc1c(C)n(C(C)c2ccccc2)oc1=O)S(=O)(=O)C(F)(F)F (centres unmarked) [Compound 1-321] | 90

Same assay, conditions: Monochoria vaginalis, 120 g/10a active ingredient, assessed 14 days after treatment, dry weight vs untreated area

Row | SMILES | Herbicidal rate (%) Monochoria vaginalis [%]
7 | CC(=O)N(c1ccccc1Cc1c(C)n(C(C)c2ccccc2)oc1=O)S(=O)(=O)C(F)(F)F (centres unmarked) [Compound 1-310] | 90
8 | CCC(=O)N(c1ccccc1Cc1c(C)n(C(C)c2ccccc2)oc1=O)S(=O)(=O)C(F)(F)F (centres unmarked) [Compound 1-321] | 90

The molecules below were run on Scirpus juncoides (assay: Test Example 1: herbicidal effect test by treatment of rice paddy soil (immediately after seeding)). Settings: 120 g/10a active ingredient, dry weight vs untreated area, 14 days after treatment.
Format: in vivo
Outline: (§2)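 Values are herbicidal rates (%) derived from average plant dry weight in treated versus untreated pots 14 days after treatment, run in duplicate. Treatment was a water-diluted emulsion dropped into flooded paddy soil right after sowing, at 120 g active ingredient per 10 ares.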

Row | SMILES | Herbicidal rate (%) Scirpus juncoides [%]
9 | CC(=O)N(c1ccccc1Cc1c(C)n(C(C)c2ccccc2)oc1=O)S(=O)(=O)C(F)(F)F (centres unmarked) [Compound 1-310] | 90
10 | CCC(=O)N(c1ccccc1Cc1c(C)n(C(C)c2ccccc2)oc1=O)S(=O)(=O)C(F)(F)F (centres unmarked) [Compound 1-321] | 90

Each molecule was assayed on Echinochloa crus-galli in the same assay as above. Settings: 120 g/10a active ingredient, dry weight vs untreated area, 14 days after treatment.
Format: in vivo
Outline: as §2

Row | SMILES | Herbicidal rate (%) Echinochloa crus-galli [%]
11 | CC(=O)N(c1ccccc1Cc1c(C)n(C(C)c2ccccc2)oc1=O)S(=O)(=O)C(F)(F)F (centres unmarked) [Compound 1-310] | 90
12 | CCC(=O)N(c1ccccc1Cc1c(C)n(C(C)c2ccccc2)oc1=O)S(=O)(=O)C(F)(F)F (centres unmarked) [Compound 1-321] | 90

Each molecule was assayed on broad leaf weeds (Lindernia pyxidaria and Monochoria vaginalis) in the same assay as above. Settings: Lindernia pyxidaria, 120 g/10a active ingredient, dry weight vs untreated area, 14 days after treatment.
Format: in vivo
Outline: as §2

Row | SMILES | Herbicidal rate (%) Lindernia pyxidaria [%]
13 | CC(=O)N(c1ccccc1Cc1c(C)n(C(C)c2ccccc2)oc1=O)S(=O)(=O)C(F)(F)F (centres unmarked) [Compound 1-310] | 90
14 | CCC(=O)N(c1ccccc1Cc1c(C)n(C(C)c2ccccc2)oc1=O)S(=O)(=O)C(F)(F)F (centres unmarked) [Compound 1-321] | 90

Same assay, conditions: Monochoria vaginalis, 120 g/10a active ingredient, dry weight vs untreated area, 14 days after treatment

Row | SMILES | Herbicidal rate (%) Monochoria vaginalis [%]
15 | CC(=O)N(c1ccccc1Cc1c(C)n(C(C)c2ccccc2)oc1=O)S(=O)(=O)C(F)(F)F (centres unmarked) [Compound 1-310] | 90
16 | CCC(=O)N(c1ccccc1Cc1c(C)n(C(C)c2ccccc2)oc1=O)S(=O)(=O)C(F)(F)F (centres unmarked) [Compound 1-321] | 90

These molecules were tested on southern crabgrass (assay: Test Example 3: herbicidal effect test by treatment of dry field farming soil (one day after seeding)). Settings: 120 g/10a active ingredient, evaluated 14 days after treatment.
Format: in vivo
Outline: (§3)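 Dry-field alluvium pots; weed seeds incorporated in top 1 cm; soil spray of diluted emulsion 1 d after seeding, 120 g a.i./10 a in 100 L/10 a. Readout: % reduction of dry weight vs untreated, day 14, duplicates.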

Row | SMILES | herbicidal rate, southern crabgrass [%]
17 | CC(=O)N(c1ccccc1Cc1c(C)n(C(C)c2ccccc2)oc1=O)S(=O)(=O)C(F)(F)F (centres unmarked) [Compound 1-310] | 90
18 | CCC(=O)N(c1ccccc1Cc1c(C)n(C(C)c2ccccc2)oc1=O)S(=O)(=O)C(F)(F)F (centres unmarked) [Compound 1-321] | 90

What follows are molecules tested on Chenopodium album in the same assay as above. Settings: 120 g/10a active ingredient, evaluated 14 days after treatment.
Format: in vivo
Outline: as §3

Row | SMILES | herbicidal rate, Chenopodium album [%]
19 | CC(=O)N(c1ccccc1Cc1c(C)n(C(C)c2ccccc2)oc1=O)S(=O)(=O)C(F)(F)F (centres unmarked) [Compound 1-310] | 90
20 | CCC(=O)N(c1ccccc1Cc1c(C)n(C(C)c2ccccc2)oc1=O)S(=O)(=O)C(F)(F)F (centres unmarked) [Compound 1-321] | 90

Each molecule was assayed on Amaranthus viridis in the same assay as above. Settings: 120 g/10a active ingredient, evaluated 14 days after treatment.
Format: in vivo
Outline: as §3

Row | SMILES | herbicidal rate, Amaranthus viridis [%]
21 | CC(=O)N(c1ccccc1Cc1c(C)n(C(C)c2ccccc2)oc1=O)S(=O)(=O)C(F)(F)F (centres unmarked) [Compound 1-310] | 90
22 | CCC(=O)N(c1ccccc1Cc1c(C)n(C(C)c2ccccc2)oc1=O)S(=O)(=O)C(F)(F)F (centres unmarked) [Compound 1-321] | 90

These molecules were tested on Echinochloa crus-galli in the same assay as above. Settings: 120 g/10a active ingredient, evaluated 14 days after treatment.
Format: in vivo
Outline: as §3

Row | SMILES | herbicidal rate, Echinochloa crus-galli [%]
23 | CC(=O)N(c1ccccc1Cc1c(C)n(C(C)c2ccccc2)oc1=O)S(=O)(=O)C(F)(F)F (centres unmarked) [Compound 1-310] | 90
24 | CCC(=O)N(c1ccccc1Cc1c(C)n(C(C)c2ccccc2)oc1=O)S(=O)(=O)C(F)(F)F (centres unmarked) [Compound 1-321] | 90

What follows are molecules tested on southern crabgrass (assay: Test Example 4: herbicidal effect test by treatment of leave and stem in dry field farming (seven days after seeding)). Settings: 120 g/10a active ingredient; emulsion sprayed seven days after seeding; evaluated 14 days after treatment.
Format: in vivo
Outline: (§4)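 Duplicate pots were scored 14 days post-spray by dry weight, herbicidal rate = {1 − treated/untreated average dry weight} × 100. The water-diluted emulsion, equivalent to 120 g active ingredient per 10 ares in 100 L, was applied seven days after sowing 20 seeds each into the upper 1 cm of alluvial soil.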

Row | SMILES | herbicidal effect (herbicidal rate), southern crabgrass [%]
25 | CC(=O)N(c1ccccc1Cc1c(C)n(C(C)c2ccccc2)oc1=O)S(=O)(=O)C(F)(F)F (centres unmarked) [Compound 1-310] | 90
26 | CCC(=O)N(c1ccccc1Cc1c(C)n(C(C)c2ccccc2)oc1=O)S(=O)(=O)C(F)(F)F (centres unmarked) [Compound 1-321] | 90

The molecules below were run on Chenopodium album in the same assay as above. Settings: 120 g/10a active ingredient; emulsion sprayed seven days after seeding; evaluated 14 days after treatment.
Format: in vivo
Outline: as §4

Row | SMILES | herbicidal effect (herbicidal rate), Chenopodium album [%]
27 | CC(=O)N(c1ccccc1Cc1c(C)n(C(C)c2ccccc2)oc1=O)S(=O)(=O)C(F)(F)F (centres unmarked) [Compound 1-310] | 40
28 | CCC(=O)N(c1ccccc1Cc1c(C)n(C(C)c2ccccc2)oc1=O)S(=O)(=O)C(F)(F)F (centres unmarked) [Compound 1-321] | 40

Each molecule was assayed on Amaranthus viridis in the same assay as above. Settings: 120 g/10a active ingredient; emulsion sprayed seven days after seeding; evaluated 14 days after treatment.
Format: in vivo
Outline: as §4

Row | SMILES | herbicidal effect (herbicidal rate), Amaranthus viridis [%]
29 | CC(=O)N(c1ccccc1Cc1c(C)n(C(C)c2ccccc2)oc1=O)S(=O)(=O)C(F)(F)F (centres unmarked) [Compound 1-310] | 40
30 | CCC(=O)N(c1ccccc1Cc1c(C)n(C(C)c2ccccc2)oc1=O)S(=O)(=O)C(F)(F)F (centres unmarked) [Compound 1-321] | 40

These molecules were tested on Echinochloa crus-galli in the same assay as above. Settings: 120 g/10a active ingredient; emulsion sprayed seven days after seeding; evaluated 14 days after treatment.
Format: in vivo
Outline: as §4

Row | SMILES | herbicidal effect (herbicidal rate), Echinochloa crus-galli [%]
31 | CC(=O)N(c1ccccc1Cc1c(C)n(C(C)c2ccccc2)oc1=O)S(=O)(=O)C(F)(F)F (centres unmarked) [Compound 1-310] | 90
32 | CCC(=O)N(c1ccccc1Cc1c(C)n(C(C)c2ccccc2)oc1=O)S(=O)(=O)C(F)(F)F (centres unmarked) [Compound 1-321] | 90
